Laboratory results reported in patent publication US11426402B2, “IRE1 activating compounds for use in therapy” (The Scripps Research Institute, priority 2019, dated 2022).

Key:
APP = test: [35S] metabolic labeling of APP in 7PA2 CHO cells; type: cell-based
Experimental: FIGS. 5A-5D. […] Cells were treated for 18 hours, media was then replaced and conditioned in the presence of treatments for 24 hours before harvesting for ELISA assay. Error bars represent SEM for n=3 replicates. Statistics calculated from one-tailed Student's t-test. *p<0.05, **p<0.01, ***p<0.001 (FIG. 5A). Quantification of media and lysate immunoblots from 474 treatment (10 μM) of APP. Error bars represent Standard Deviation for n=3 replicates. Statistics calculated from one-tailed Student's t-test. *p<0.05, **p<0.01 ***p<0.001 (FIG. 5B). […] Statistics calculated from one-tailed Student's t-test. *p<0.05, **p<0.01, ***p<0.001 (FIG. 5C). […] Statistics calculated from one-tailed Student's t-test. *p<0.05, **p<0.01, ***p<0.001 (FIG. 5D).
[^35S] metabolic labeling experiments were performed as previously described^8. […] Band intensities were quantified by densitometry in ImageQuant. Fraction secreted was calculated using the equation: fraction secreted=[extracellular [^35S]-APP signal at t/(extracellular [^35S]-APP signal at t=0+intracellular[^35S]-APP signal at t=0)]. Fraction remaining was calculated using the equation: [(extracellular [^35S]-APP signal at t+intracellular [^35S]-APP signal at t)/(extracellular [^35S]-APP signal at t=0+intracellular [^35S]-APP signal at t=0)].

ER proteostasis factors = test: RNAseq expression of 124 proteostasis factors; type: cell-based, human
Experimental: Cells were lysed and total RNA collected using the RNeasy mini kit, according to manufacturer's instructions (Qiagen). Conventional RNA-seq was conducted via BGI Americas on the BGI Proprietary platform, providing single-end 50 bp reads at 20 million reads per sample. Alignment of sequencing data was done using DNAstar Lasergene SeqManPro to the GRCh37. p 13 human genome reference assembly, and assembly data were imported into ArrayStar 12.2 with QSeq (DNAStar Inc.) to quantify the gene expression levels and normalization to reads per kilobase per million (RPKM). Differential expression analysis and statistical significance calculations between different conditions was assessed using “DESeq” in R, compared to vehicle-treated cells, using a standard negative binomial fit of the RPKM data to generate Fold Change quantifications.
One of the mechanisms by which IRE1/XBP1s activation is protective is through the targeted transcriptional remodeling of ER proteostasis pathways. Because it was observed that compounds such as 474 and 970 selectively activate IRE1/XBP1s signaling, it was desired to confirm that these compounds similarly promote targeted ER proteostasis network remodeling. […]

ATF6 target genes = test: Liver RNA sequencing of DIO mice, ATF6 targets; type: in vivo, mouse; conditions: once-daily IP 50 mg/kg, 6 weeks
Experimental: FIGS. 7A-7D. RT-PCR of Xbp1s and the IRE1/XBP1s target gene Erdj4 from adipose tissue post single IP dose of 474 (FIG. 7A). Liver RNAseq profiles of ATF6, IRE1 and PERK target genes expressed as log 2 fold change of chronic 474 treatment compared to vehicle (FIG. 7B). Body weight (FIG. 7C) and food intake (FIG. 70) over 6 weeks of dosing.
To test the efficacy of pharmacologic IRE1 activation in mitigating T2D, we chronically administered 474 by once-daily IP injections at 50 mg/kg for a period of 6 weeks to Diet-Induced Obese (DIO) mice, a model of T2D.

DNAJB9 = DNAJB9 expression in SHSY5Y cells overexpressing APP SW; type: cell-based
pancreatic islets = test: Glucose stimulated insulin secretion in islets isolated from treated mice; type: in vivo, mouse; conditions: relative to vehicle-treated controls
Source text: FIGS. 8A-8E. Oral glucose tolerance test in DIO mice treated with either Vehicle or 474 for 3 weeks (n=8) (FIG. 8A). Serum glucose and insulin levels post 4 weeks of dosing with 474 or vehicle (FIG. 8B). Glucose stimulated insulin secretion in islets isolated from 474 or vehicle treated mice. (FIG. 8C). Hepatic triglyceride content (FIG. 8D) and gene expression profiles of gluconeogenic genes (FIG. 8E) at 6 weeks post dosing.
This effect can be rationalized, at least in part, by enhanced pancreatic f-cell function in 474-treated […], as shown by our studies in isolated pancreatic islets from vehicle- and 474-treated mice. […] Given the well-documented link between IRE1 and hepatic metabolism in T2D^55, we also examined markers of liver function after 474 treatment. We found reduced liver triglyceride accumulation in 474-treated mice relative to controls (FIG. 80).

Row | Compound | APP degradation (APP) | secretion of soluble APP into the media (APP) | remodeling of ER proteostasis factors relative to other compartments (ER proteostasis factors) | ATF6 transcriptional response in liver (ATF6 target genes) | DNAJB9 expression (DNAJB9) | insulin secretion from islets upon stimulation with glucose (pancreatic islets)
1 | Cc1ccc(OCCN(C)C(=O)Cn2cc(NC(=O)CCOc3ccccc3)cn2)cc1 [Compound 474] | increased APP degradation | reduced the secretion of soluble APP | selective remodeling | modest induction | further increased | dramatic increase
2 | O=C(CN(Cc1ccc(Cl)cc1)S(=O)(=O)c1cccnc1)N1CCc2ccccc21 [Compound 970] |  |  | selective remodeling |  |  | 
